In US20240270715A1, “INHIBITORS OF TRANSGLUTAMINASES” (ZEDIRA GMBH, priority 2021, published 2024):

How the values were obtained:
[1] = target: T1, recombinant human transglutaminase 2 (Homo sapiens, UniProt P21980); experiment: Transglutaminase assay: incorporation of dansylcadaverine into dimethylcasein (DCC-assay); assay type: biochemical; details: recombinant human TG2 10 nM, dansylcadaverine/dimethylcasein; read-out: IC50 TG2
T1 sequence (P21980 1-687): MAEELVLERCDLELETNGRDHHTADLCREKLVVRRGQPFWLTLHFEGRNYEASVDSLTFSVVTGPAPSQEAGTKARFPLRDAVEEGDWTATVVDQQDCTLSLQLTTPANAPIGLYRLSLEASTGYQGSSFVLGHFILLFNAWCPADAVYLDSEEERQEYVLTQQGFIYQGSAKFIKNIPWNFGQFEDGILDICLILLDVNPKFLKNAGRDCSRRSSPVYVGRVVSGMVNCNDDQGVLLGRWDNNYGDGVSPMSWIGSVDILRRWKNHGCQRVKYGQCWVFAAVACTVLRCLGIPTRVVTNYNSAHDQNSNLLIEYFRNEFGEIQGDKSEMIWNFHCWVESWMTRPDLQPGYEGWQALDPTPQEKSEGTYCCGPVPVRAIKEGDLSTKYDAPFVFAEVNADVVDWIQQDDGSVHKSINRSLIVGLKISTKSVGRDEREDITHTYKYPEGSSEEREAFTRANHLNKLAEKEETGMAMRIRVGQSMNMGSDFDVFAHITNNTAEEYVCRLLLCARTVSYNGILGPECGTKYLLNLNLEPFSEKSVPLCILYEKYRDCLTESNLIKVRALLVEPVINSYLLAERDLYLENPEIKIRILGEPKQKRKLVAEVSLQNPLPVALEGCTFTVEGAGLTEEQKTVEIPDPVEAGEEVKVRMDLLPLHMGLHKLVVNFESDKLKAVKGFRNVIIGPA
Procedure: To illustrate the advantage of branched alkyl moieties over aromatic moieties, we refer to reference compounds Ref. 2 (ZED1227, U.S. Pat. No. 9,434,763 B2) and Ref. 3 (A8, ZED1047). Inhibition data were determined using the classical fluorescent transamidation assay (dansylcadaverine incorporation into methylated casein, DCC-assay) as described [Büchold, C.; Hils, M.; Gerlach, U.; Weber, J.; Pelzer, C.; Heil, A.; Aeschlimann, D.; Pasternack, R. Features of ZED1227: The First-In-Class Tissue Transglutaminase Inhibitor Undergoing Clinical Evaluation for the Treatment of Celiac Disease. Cells 2022, 11, 1667. https://doi.org/10.3390/cells11101667]. Casein is one of the best known high molecular weight (24 kDa) protein substrates for transglutaminases. Please note, the IC50 value of Ref. 3 (A8) published in U.S. Pat. No. 9,434,763 B2 cannot be compared to the present data, relying on a fluorogenic isopeptidase assay.
To this extent, inhibition data were determined using the classical fluorescent transamidation assay (dansylcadaverine incorporation into methylated casein, DCC-assay) as described in Büchold et al. [Büchold, C.; Hils, M.; Gerlach, U.; Weber, J.; Pelzer, C.; Heil, A.; Aeschlimann, D.; Pasternack, R. Features of ZED1227: The First-In-Class Tissue Transglutaminase Inhibitor Undergoing Clinical Evaluation for the Treatment of Celiac Disease. Cells 2022, 11, 1667. https://doi.org/10.3390/cells11101667]. Casein is one of the best known high molecular weight (24 kDa) protein substrates for transglutaminases. Inhibition data of the inventive compounds was compared with inhibition of compounds disclosed in U.S. Pat. No. 9,434,763 B2, particularly, compound A8, which is denoted herein as Reference 3. It is noteworthy that the IC50 values of compounds A8 published in U.S. Pat. No. 9,434,763 B2 and E16 from U.S. Pat. No. 11,072,634 B2 cannot be compared to the present data, relying on a fluorogenic isopeptidase assay.
For the determination of potency of inhibitors against tissue transglutaminase, the incorporation of dansylcadaverine into dimethylcasein (Zedira product T036, Lorand et al., Anal Biochem, 1971, 44:221-31) was measured using recombinant human transglutaminase 2 (Zedira Product T022).
The tissue transglutaminase is diluted in buffer (50 mM Tris-HCl, 7.5 mM CaCl2, 150 mM NaCl, pH=7.4). The final concentration of TG2 in the assay is 10 nM.
A 10 mM inhibitor stock solution is prepared in DMSO, and from this a serial 1:2-fold dilution series is prepared also in DMSO. Each of the initial dilutions is subsequently diluted 1:50-fold with buffer (50 mM Tris-HCl, 7.5 mM CaCl2, 150 mM NaCl, pH=7.4) to yield the final working dilutions containing 2% (v/v) DMSO. 15 μl of inhibitor working dilution are added per well of a 96 well microtiter plate. As control, 15 μl of a 2% (v/v) DMSO solution prepared using the buffer mentioned above are added per well.
Immediately before starting the assay, 600 μl transglutaminase working solution are added to 11.4 ml assay buffer (50 mM Tris-HCl, 10 mM CaCl2, 10 mM glutathione, 2.5% glycerol, 16.7 μM dansylcadaverine, 4 μM N,N-dimethylcasein, 200 mM NaCl, pH=8.0). 285 μl of this reaction mix are added per well containing the inhibitor.
Increase in fluorescence is measured using λex=330 nm and λemG=500 nm at […] for 30 min. A slope of the increase in fluorescence between 20 and 30 min is calculated for determination of the IC50 value (inhibitor concentration at which 50% of the initial activity is blocked).
Analysis of enzymatic activity is performed by calculation of the slope of an increase in fluorescence intensity. IC50 values are calculated by plotting the enzymatic activity (as percentage from control containing 2% DMSO instead of inhibitor) against the inhibitor concentration. IC50 is defined as the inhibitor concentration blocking 50% of initial enzyme activity.

[2] = Caco-2 permeability assay (CacoReady kit); assay type: in vitro ADME; details: human
Procedure: Permeability coefficients (Papp values) were obtained from Caco-2 barrier studies predicting oral/intestinal bioavailability of the tested compounds. The assays were performed by using CacoReady™ ready-to-use kits from ReadyCell according to the manufacturers protocol.

[3] = Log D by shake flask method (octanol / PBS pH 7.4, HPLC); assay type: physicochemical; details: octanol / PBS pH 7.4, shake flask; read-out: logD
Procedure: In order to classify the inventive compounds according to their lipophilicity, Log D values (distribution coefficient) were determined by means of the well-established shake flask method, measuring the partition of a compound between an octanol and phosphate-buffered saline (PBS, pH 7.4) by HPLC.
Compounds with a moderate lipophilicity (Log D values from 0 to 3) are usually advantaged for oral absorption, being in balance between solubility and permeability. However, sophisticated formulation of a compound might improve oral bioavailability for highly lipophilic compounds.

| Structure (SMILES) | IC50 [1] | Papp [2] | logD [3] |
| --- | --- | --- | --- |
| CCNC(=O)C(=O)CC[C@H](NC(=O)c1cncn1C)C(=O)Nc1cccn(CC(=O)NC23CC4CC(CC(C)(C4)C2)C3)c1=O [Compound I-25, (S)-N1-ethyl-N6-(1-(2-(3-methyladamantane-1-amino)-2-oxoethyl)-2-oxo-1,2-dihydropyridin-3-yl)-5-(1-methyl-1H-imidazole-5-carboxamido)-2-oxohexanediamide] | 150 to 600 nM | < 1 ×10⁻⁶ cm/s | 1 to 3 |
| CCNC(=O)C(=O)CC[C@H](NC(=O)c1cnc(Cl)n1C)C(=O)Nc1cccn(CC(=O)NC23CC4CC(C)(CC(C)(C4)C2)C3)c1=O [Compound I-26, (S)-2-(2-chloro-1-methyl-1H-imidazole-5-carboxamido)-N6-ethyl-N1-(1-(2-(3,5-dimethyladamantane-1-amino)-2-oxoethyl)-2-oxo-1,2-dihydropyridin-3-yl)-5-oxohexanediamide] | 150 to 600 nM | < 1 ×10⁻⁶ cm/s | 1 to 3 |
| CCNC(=O)C(=O)CC[C@H](NC(=O)c1cnc(C)n1C)C(=O)Nc1cccn(CC(=O)NC23CC4CC(CC(C)(C4)C2)C3)c1=O [Compound I-27, (S)-2-(1,2-dimethyl-1H-imidazole-5-carboxamido)-N6-ethyl-N1-(1-(2-(3-methyladamantane-1-amino)-2-oxoethyl)-2-oxo-1,2-dihydropyridin-3-yl)-5-oxohexanediamide] | 600 to 3500 nM | < 1 ×10⁻⁶ cm/s | 1 to 3 |
| CCNC(=O)C(=O)CC[C@H](NC(=O)c1cncn1C)C(=O)Nc1cccn(CC(=O)NC23CC4(C)CC(C)(CC(C)(C4)C2)C3)c1=O [Compound I-28, (S)-N1-ethyl-N6-(1-(2-(3,5,7-trimethyl-1-adamantylamino)-2-oxoethyl)-2-oxo-1,2-dihydropyridin-3-yl)-5-(1-methyl-1H-imidazole-5-carboxamido)-2-oxohexanediamide] | < 150 nM | < 1 ×10⁻⁶ cm/s | 1 to 3 |
| CCNC(=O)C(=O)CC[C@H](NC(=O)c1cnc(Cl)n1C)C(=O)Nc1cccn(CC(=O)NC23CC4(C)CC(C)(CC(C)(C4)C2)C3)c1=O [Compound I-29, (S)-2-(2-chloro-1-methyl-1H-imidazole-5-carboxamido)-N6-ethyl-N1-(1-(2-(3,5,7-trimethyl-1-adamantylamino)-2-oxoethyl)-2-oxo-1,2-dihydropyridin-3-yl)-5-oxohexanediamide] | < 150 nM | < 1 ×10⁻⁶ cm/s | 1 to 3 |
| CCNC(=O)C(=O)CC[C@H](NC(=O)c1cc2ccccc2o1)C(=O)Nc1cccn(CC(=O)NC2C3CC4CC(C3)CC2C4)c1=O (stereo partly drawn) [Compound I-30, (S)-2-(benzofuran-2-carboxamido)-N6-ethyl-N1-(1-(2-(2-adamantylamino)-2-oxoethyl)-2-oxo-1,2-dihydropyridin-3-yl)-5-oxohexanediamide] | < 150 nM | 1 to 10 ×10⁻⁶ cm/s | 3 to 5 |
| CCNC(=O)C(=O)CC[C@H](NC(=O)c1oc2ccccc2c1C)C(=O)Nc1cccn(CC(=O)NC2C3CC4CC(C3)CC2C4)c1=O (stereo partly drawn) [Compound I-31, (S)-N1-ethyl-N6-(1-(2-(2-adamantylamino)-2-oxoethyl)-2-oxo-1,2-dihydropyridin-3-yl)-5-(3-methylbenzofuran-2-carboxamido)-2-oxohexanediamide] | < 150 nM | 1 to 10 ×10⁻⁶ cm/s | 3 to 5 |
| CCNC(=O)C(=O)CC[C@H](NC(=O)c1oc2ccccc2c1Cl)C(=O)Nc1cccn(CC(=O)NC2C3CC4CC(C3)CC2C4)c1=O (stereo partly drawn) [Compound I-32, (S)-2-(3-chlorobenzofuran-2-carboxamido)-N6-ethyl-N1-(1-(2-(2-adamantylamino)-2-oxoethyl)-2-oxo-1,2-dihydropyridin-3-yl)-5-oxohexanediamide] | < 150 nM | 1 to 10 ×10⁻⁶ cm/s | 3 to 5 |
| CCNC(=O)C(=O)CC[C@H](NC(=O)c1cc2c(Br)cccc2o1)C(=O)Nc1cccn(CC(=O)NC2C3CC4CC(C3)CC2C4)c1=O (stereo partly drawn) [Compound I-33, (S)-2-(4-bromobenzofuran-2-carboxamido)-N6-ethyl-N1-(1-(2-(2-adamantylamino)-2-oxoethyl)-2-oxo-1,2-dihydropyridin-3-yl)-5-oxohexanediamide] | < 150 nM | 1 to 10 ×10⁻⁶ cm/s | 3 to 5 |
| CCNC(=O)C(=O)CC[C@H](NC(=O)c1cc2ccccc2s1)C(=O)Nc1cccn(CC(=O)NC2C3CC4CC(C3)CC2C4)c1=O (stereo partly drawn) [Compound I-34, (S)-2-(benzo[b]thiophene-2-carboxamido)-N6-ethyl-N1-(1-(2-(2-adamantylamino)-2-oxoethyl)-2-oxo-1,2-dihydropyridin-3-yl)-5-oxohexanediamide] | < 150 nM | 1 to 10 ×10⁻⁶ cm/s | 3 to 5 |
| CCNC(=O)C(=O)CC[C@H](NC(=O)c1cc2cccc(F)c2s1)C(=O)Nc1cccn(CC(=O)NC2C3CC4CC(C3)CC2C4)c1=O (stereo partly drawn) [Compound I-35, (S)-N1-ethyl-5-(7-fluorobenzo[b]thiophene-2-carboxamido)-N6-(1-(2-(2-adamantylamino)-2-oxoethyl)-2-oxo-1,2-dihydropyridin-3-yl)-2-oxohexanediamide] | < 150 nM | 1 to 10 ×10⁻⁶ cm/s | 3 to 5 |
| CCNC(=O)C(=O)CC[C@H](NC(=O)c1cc2c(F)c(F)ccc2[nH]1)C(=O)Nc1cccn(CC(=O)NC2C3CC4CC(C3)CC2C4)c1=O (stereo partly drawn) [Compound I-36, (S)-2-(4,5-difluoro-1H-indole-2-carboxamido)-N6-ethyl-N1-(1-(2-(2-adamantylamino)-2-oxoethyl)-2-oxo-1,2-dihydropyridin-3-yl)-5-oxohexanediamide] | < 150 nM | 1 to 10 ×10⁻⁶ cm/s | 3 to 5 |
